From US9617289B2, “RSV antiviral compounds” (JANSSEN R&D IRELAND, priority 2012, dated 2017)
Where a name gives a salt, the structure may show the parent alone. Read-outs that look alike come from different tables or passages of the source.

Test system: rgRSV224 virus
Assay: Antiviral activity: inhibition of rgRSV224 (GFP-expressing RSV) replication in HeLa cells
Format: cell-based, respiratory syncytial virus
Settings: human respiratory syncytial virus, HeLa, 72 h
Procedure: Black 96-well clear-bottom microtiter plates (Corning, Amsterdam, The Netherlands) were filled in duplicate using a customized robot system with serial 4-fold dilutions of compound in a final volume of 50 μl culture medium [RPMI medium without phenol red, 10% FBS, 0.04% gentamycin (50 mg/ml) and 0.5% DMSO]. Then, 100 μl of a HeLa cell suspension (5×10^4 cells/ml) in culture medium was added to each well followed by the addition of 50 μl rgRSV224 (MOI=0.02) virus in culture medium using a multidrop dispenser (Thermo Scientific, Erembodegem, Belgium). rgRSV224 virus is an engineered virus that includes an additional GFP gene (Hallak et al, 2000) and was in-licensed from the NIH (Bethesda, Md., USA). Medium, virus- and mock-infected controls were included in each test. Cells were incubated at 37° C. in a 5% CO2 atmosphere. Three days post-virus exposure, viral replication was quantified by measuring GFP expression in the cells by a MSM laser microscope (Tibotec, Beerse, Belgium). The EC50 was defined as the 50% inhibitory concentration for GFP expression. In parallel, compounds were incubated for three days in a set of white 96-well microtitier plates (Corning) and the cytotoxicity of compounds in HeLa cells was determined by measuring the ATP content of the cells using the ATPlite kit (PerkinElmer, Zaventem, Belgium) according to the manufacturer's instructions. The CC50 was defined as the 50% concentration for cytotoxicity. SI is calculated as CC50/EC50.

[1] = read-out: RSV-wt_pEC50, rgRSV224 (MOI=0.02) in HeLa cells, GFP expression three days post-virus exposure
[2] = read-out: pEC50, rgRSV224 (MOI=0.02) in HeLa cells, GFP expression three days post-virus exposure (converted)

| Structure (SMILES) | EC50 [1] [nM] | EC50 [2] [nM] |
| --- | --- | --- |
| CC(=O)OCCOC(=O)N1CCC2(CC1)C(=O)N(Cc1cc3cc(Cl)ccc3n1CCCC#N)c1cnccc12 [Compound 150, 2-(Acetyloxy)ethyl 1′-{[5-chloro-1-(3-cyanopropyl)-1H-indol-2-yl]methyl}-2′-oxo-1′,2′-dihydro-1H-spiro[piperidine-4,3′-pyrrolo-[2,3-c]pyridine]-1-carboxylate] | 0.049 |  |
| CS(=O)(=O)CCCn1c(CN2C(=O)C3(CCN(S(C)(=O)=O)CC3)c3ccncc32)cc2cc(Cl)ccc21 [Compound 3, 1′-({5-chloro-1-[3-(methylsulfonyl)propyl]-1H-indol-2-yl}methyl)-1-(methylsulfonyl)spiro[piperidine-4,3′-pyrrolo[2,3-c]pyridin]-2′(1′H)-one] |  | 0.0316 |
| CC(=O)N1CCC2(CC1)C(=O)N(Cc1cc3cc(Cl)ccc3n1CCCC#N)c1cnccc12 [Compound 64, 4-(2-((1-acetyl-2′-oxospiro[piperidine-4,3′-pyrrolo[2,3-c]-pyridin]-1′(2′H)-yl)methyl)-5-chloro-1H-indol-1-yl)butane-nitrile] |  | 0.251 |
| O=C(C(O)CO)N1CCC2(CC1)C(=O)N(Cc1cc3cc(Cl)ccc3n1CCCCF)c1cnccc12 (stereo not drawn) [Compound 167, 1′-{[5-Chloro-1-(4-fluorobutyl)-1H-indol-2-yl]methyl}-1-(2,3-dihydroxypropanoyl)spiro[piperidine-4,3′-pyrrolo[2,3-c]pyridin]-2′(1′H)-one] | 0.123 |  |
| CS(=O)(=O)CCCn1c(CN2C(=O)C3(CCOCC3)c3cnccc32)cc2cc(Cl)ccc21 [Compound 57] |  | 83.2 |
| CC(C)(C)OC(=O)N1CCC2(CC1)C(=O)N(Cc1nc3nc(Cl)ccc3n1CCCC(F)(F)F)c1cnccc12 [Compound 68, tert-butyl-1′-((5-chloro-1-(4,4,4-trifluorobutyl)-1H-imidazo-[4,5-b]pyridin-2-yl)methyl)-2′-oxo-1′,2′-dihydrospiro-[piperidine-4,3′-pyrrolo[2,3-c]pyridine]-1-carboxylate] |  | 0.501 |
| N#CCCCn1c(CN2C(=O)C3(CCNCC3)c3ccncc32)cc2cc(Cl)ccc21 [Compound 78, 4-(5-chloro-2-((2′-oxospiro[piperidine-4,3′-pyrrolo[2,3-c]-pyridin]-1′(2′H)-yl)methyl)-1H-indol-1-yl)butanenitrile hydrochloride] |  | 0.631 |
| CC(C)(O)C(=O)N1CCC2(CC1)C(=O)N(Cc1cc3cc(Cl)ccc3n1CCCCF)c1cnccc12 [Compound 106, 1′-{[5-Chloro-1-(4-fluorobutyl)-1H-indol-2-yl]methyl}-1-(2-hydroxy-2-methylpropanoyl)spiro[piperidine-4,3′-pyrrolo-[2,3-c]pyridin]-2′(1′H)-one] | 0.24 |  |
| COC(=O)N[C@H]1C[C@@]2(C1)C(=O)N(Cc1nc3cc(Cl)ccc3n1CCCC#N)c1ccccc12 [Compound 136, methyl ((1r,3r)-1′-((5-chloro-1-(3-cyanopropyl)-1H-benzo[d]imidazol-2-yl)methyl)-2′-oxospiro[cyclobutane-1,3′-indolin]-3-yl)carbamate] | 0.245 |  |
| CC(C)(O)C(=O)N1CC2(C1)C(=O)N(Cc1nc3cc(Cl)ccc3n1CCCS(C)(=O)=O)c1ccccc12 [Compound 6, 1′-({5-chloro-1-[3-(methylsulfonyl)propyl]-1H-benzimidazol-2-yl}methyl)-1-(2-hydroxy-2-methylpropanoyl)spiro[azetidine-3,3′-indol]-2′(1′H)-one] |  | 0.501 |
| CS(=O)(=O)CCCn1c(CN2C(=O)C3(CNC3)c3ccccc32)cc2cc(Cl)ccc21 [Compound 134, 1′-({5-Chloro-1-[3-(methylsulfonyl)propyl]-1H-indol-2-yl}methyl)spiro[azetidine-3,3′-indol]-2′(1′H)-one] | 2 |  |
| O=C1N(Cc2nc3cc(Cl)ccc3n2CCCC(F)(F)F)c2ccccc2C12CCOCC2 [Compound 52, 1-((5-chloro-1-(4,4,4-trifluorobutyl)-1H-benzo[d]imidazol-2-yl)methyl)-2′,3′,5′,6′-tetrahydrospiro[indoline-3,4′-pyran]-2-one] |  | 2.51 |
